Assay results: ChEMBL document CHEMBL3632472, “Bastadins, brominated-tyrosine derivatives, suppress accumulation of cholesterol ester in macrophages” (Bioorg Med Chem Lett, 2015)
Activity calls are given as the source filed them. The rule behind the calls is not given here.

Key:
[1] = target: T1, Sterol O-acyltransferase 1 (Homo sapiens) (UniProt P35610); test: Inhibition of human ACAT1 expressed in CHO cells assessed as inhibition of [3H]cholesterol ester accumulation at 5 uM in presence of 0.1 mM [3H]oleate-conjugated BSA; type: cell-based
T1 sequence (whole entry): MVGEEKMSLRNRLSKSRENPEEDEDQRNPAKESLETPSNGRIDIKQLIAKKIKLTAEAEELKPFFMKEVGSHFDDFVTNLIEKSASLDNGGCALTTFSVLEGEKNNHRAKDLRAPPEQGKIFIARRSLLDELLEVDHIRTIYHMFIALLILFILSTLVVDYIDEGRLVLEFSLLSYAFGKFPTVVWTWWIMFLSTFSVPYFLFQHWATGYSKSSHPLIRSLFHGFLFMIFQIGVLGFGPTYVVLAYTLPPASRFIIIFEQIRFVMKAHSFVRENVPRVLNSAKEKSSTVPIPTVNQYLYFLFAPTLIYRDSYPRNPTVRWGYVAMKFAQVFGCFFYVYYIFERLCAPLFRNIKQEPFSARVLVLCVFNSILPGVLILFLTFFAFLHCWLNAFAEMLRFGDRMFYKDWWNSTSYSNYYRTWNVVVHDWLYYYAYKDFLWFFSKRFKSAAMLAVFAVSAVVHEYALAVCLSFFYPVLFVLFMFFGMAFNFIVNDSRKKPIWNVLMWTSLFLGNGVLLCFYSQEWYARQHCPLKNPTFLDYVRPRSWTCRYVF

[2] = Cytotoxicity against human MDM cells at 5 uM after 24 hrs; type: cell-based
MDM [3] = test: Inhibition of ACAT in human MDM cells assessed as inhibition of foam cell formation by measuring acetylated LDL-induced [3H]cholesterol ester accumulation at 5 uM after 24 hrs in presence of 0.1 mM [3H]oleate; type: cell-based
[4] = target: T2, Sterol O-acyltransferase 2 (Homo sapiens) (UniProt O75908); test: Inhibition of human ACAT2 expressed in CHO cells assessed as inhibition of [3H]cholesterol ester accumulation at 5 uM in presence of 0.1 mM [3H]oleate-conjugated BSA; type: cell-based
T2 sequence (whole entry): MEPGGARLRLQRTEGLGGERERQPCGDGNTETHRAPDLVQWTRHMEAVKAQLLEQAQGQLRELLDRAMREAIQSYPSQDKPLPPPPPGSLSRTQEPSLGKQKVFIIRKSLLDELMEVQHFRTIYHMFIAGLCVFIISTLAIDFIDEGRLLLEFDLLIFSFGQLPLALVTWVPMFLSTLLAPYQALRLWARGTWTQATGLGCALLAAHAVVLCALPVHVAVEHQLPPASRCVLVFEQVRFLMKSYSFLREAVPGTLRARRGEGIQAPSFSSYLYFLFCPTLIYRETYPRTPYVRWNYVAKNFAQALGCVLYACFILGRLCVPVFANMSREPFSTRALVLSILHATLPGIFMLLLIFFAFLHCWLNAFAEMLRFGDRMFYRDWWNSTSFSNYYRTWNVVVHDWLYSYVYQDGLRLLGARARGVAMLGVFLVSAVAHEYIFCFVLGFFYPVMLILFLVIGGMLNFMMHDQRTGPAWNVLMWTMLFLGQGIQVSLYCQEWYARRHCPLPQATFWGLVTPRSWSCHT

[5] = target: T2, Sterol O-acyltransferase 2 (Homo sapiens); test: Inhibition of human ACAT2 expressed in CHO cells at 5 uM using [14C]oleoyl-CoA as substrate; type: cell-based
[6] = target: T1, Sterol O-acyltransferase 1 (Homo sapiens); test: Inhibition of human ACAT1 expressed in CHO cells at 5 uM using [14C]oleoyl-CoA as substrate; type: cell-based
MDM [7] = test: Effect on ACAT1 expression in human MDM cells at 5 uM for 24 hrs by western blot analysis; type: functional, cell-based
MDM [8] = test: Effect on SR-A expression in human MDM cells at 5 uM for 24 hrs by western blot analysis; type: functional, cell-based
MDM [9] = test: Effect on SR-BI expression in human MDM cells at 5 uM for 24 hrs by western blot analysis; type: functional, cell-based
MDM [10] = test: Inhibition of human ACAT in MDM cells microsomal fraction assessed as inhibition of cholesteryl [14C]oleate formation at 5 uM for 15 mins in presence of [14C]oleoyl-CoA; type: cell-based
MDM [11] = test: Effect on phospholipid accumulation in human MDM cells at 5 uM after 24 hrs in presence of 50 ug/ml acetylated LDL and 0.1 mM [3H]oleate; type: functional, cell-based
MDM [12] = test: Effect on triacylglycerol accumulation in human MDM cells at 5 uM after 24 hrs in presence of 50 ug/ml acetylated LDL and 0.1 mM [3H]oleate; type: functional, cell-based
MDM [13] = test: Effect on ACAT2 expression in human MDM cells at 5 uM for 24 hrs by western blot analysis; type: functional, cell-based
CHO = test: Cytotoxicity against CHO cells at 5 uM; type: cell-based, Cricetulus griseus; details: chinese hamster
MDM [14] = test: Effect on CD36 expression in human MDM cells at 5 uM for 24 hrs by western blot analysis; type: functional, cell-based

Row | Structure (SMILES) | inhibition [1] | Activity [2] | inhibition (MDM [3]) [%] | inhibition [4] | inhibition [5] | inhibition [6] | Activity (MDM [7]) | Activity (MDM [8]) | Activity (MDM [9]) | inhibition (MDM [10]) | Activity (MDM [11]) | Activity (MDM [12]) | Activity (MDM [13]) | Activity (CHO) | Activity (MDM [14])
1 | O=C1NCCc2ccc(O)c(c2)Oc2ccc(cc2Br)CCNC(=O)/C(=N/O)Cc2cc(Br)c(O)c(c2)Oc2c(Br)cc(cc2Br)C/C1=N\O | inactive | Non-toxic | 80 | inactive | inactive | inactive |  |  |  |  |  |  |  |  | 
2 | O=C(NCCc1ccc(O)c(Br)c1)/C(Cc1ccc(O)c(Br)c1)=N\O [HEMIBASTADIN 1] | inactive | Non-toxic | 5 | inactive |  |  |  |  |  |  |  |  |  |  | 
3 | O=C1N/C=C/c2ccc(c(Br)c2)Oc2cc(cc(Br)c2O)CCNC(=O)/C(=N/O)Cc2cc(Br)c(c(Br)c2)Oc2cc(cc(Br)c2O)C/C1=N\O [BASTADIN 4] | inactive | Non-toxic | 36 | inactive |  |  |  |  |  |  |  |  |  |  | 
4 | O=C1NCCc2cc(Br)c(O)c(c2)Oc2c(Br)cc(cc2Br)[C@H](O)CNC(=O)/C(=N/O)Cc2cc(Br)c(O)c(c2)Oc2ccc(cc2Br)C/C1=N\O [BASTADIN 12] | inactive | Non-toxic | 80 | inactive | inactive | inactive |  |  |  |  |  |  |  |  | 
5 | O=C1NCCc2cc(Br)c(O)c(c2)Oc2ccc(cc2Br)CCNC(=O)/C(=N\O)Cc2cc(Br)c(O)c(c2)Oc2c(Br)cc(cc2Br)C/C1=N/O [BASTADIN 5] | inactive | Non-toxic | 58 | inactive |  |  |  |  |  |  |  |  |  |  | 
6 | O=C1N/C=C/c2ccc(c(Br)c2)Oc2cc(cc(Br)c2O)CCNC(=O)/C(=N/O)Cc2ccc(c(Br)c2)Oc2cc(cc(Br)c2O)C/C1=N\O [BASTADIN 7] | inactive | Non-toxic | 39 | inactive |  |  |  |  |  |  |  |  |  |  | 
7 | O=C1NCCc2cc(Br)c(O)c(c2)Oc2c(Br)cc(cc2Br)CCNC(=O)/C(=N/O)Cc2cc(Br)c(O)c(c2)Oc2c(Br)cc(cc2Br)C/C1=N\O [BASTADIN 6] | 86% | Non-toxic | 96 | 87% | 89% | 82% | inactive | inactive | inactive | Active | inactive | inactive | inactive | Non-toxic | inactive
8 | O=C1NCCc2ccc(O)c(c2)Oc2c(Br)cc(cc2Br)CCNC(=O)/C(=N/O)Cc2cc(Br)c(O)c(c2)Oc2c(Br)cc(cc2Br)C/C1=N\O [BASTADIN 16] | 57% | Non-toxic | 88 | 61% | 58% | 61% |  |  |  |  | inactive | inactive |  | Non-toxic | 
